Consider 2 compounds from patent US20150283092A1, “DRUG DELIVERY COMPOSITION” (Alkermes Pharma Ireland Limited, priority 2009, published 2015).

A short description of series [1]: Dissolution of tacrolimus compositions in 0.005% HPC, pH 4.5, USP <711> apparatus I, baskets at 100 rpm. In kind it is physicochemical. The protocol:
Compositions A, B, and C were placed in 0.005% HPC, pH 4.5 according to USP <711>, apparatus I (2009), Baskets at 100 rpm (the dissolution vehicle). As an example of the different release profiles for the three compositions, the amount of medicament released from composition A was 92.07% at 120 min. The amount of medicament released from composition B was less than 10% at 360 min (excluded from graph due to scale). The amount of medicament released from Composition C was 43.55% at 120 min.

For series [2] the following is noted: cited from earlier work.

Where two headings read alike, the source gives them in different places.

Consider `C=CC[C@@H]1/C=C(\C)C[C@H](C)C[C@H](OC)[C@H]2O[C@@](O)(C(=O)C(=O)N3CCCC[C@H]3C(=O)O[C@H](/C(C)=C/[C@@H]3CC[C@@H](O)[C@H](OC)C3)[C@H](C)[C@@H](O)CC1=O)[C@H](C)C[C@@H]2OC` [tacrolimus], for which, in series [1], the “native solubility of tacrolimus in this dissolution vehicle” value was “approximately 43 % dissolved”.
With `CN1CCN(C2=Nc3cc(Cl)ccc3Nc3ccccc32)CC1` [clozapine], the results for the pka value in series [2] (first of two printed pka values) and in series [2] (second of two printed pka values) were 3.98 and 7.62, respectively.
